Experimental data as given in PubChem BioAssay (NCI).
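A five-concentration, 48-hour dose response in 96-well plates underlies each endpoint, interpolated linearly between surrounding concentrations. The concentration for 50% growth inhibition is given as GI50. TGI is the concentration that stops growth completely.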

What was measured:
Experiment in all cases: NCI tumour cell line growth inhibition, 48 h
HS 578T breast = test system: HS 578T breast
UACC-62 melanoma = test system: UACC-62 melanoma
LOX IMVI melanoma = test system: LOX IMVI melanoma
MCF7 breast = test system: MCF7 breast
OVCAR-4 ovarian = test system: OVCAR-4 ovarian
PC-3 prostate = test system: PC-3 prostate
NCI-H460 lung = test system: NCI-H460 lung
A549 NSCLC = test system: A549 NSCLC
KM12 colon = test system: KM12 colon
RPMI-8226 leukemia = test system: RPMI-8226 leukemia
HOP-92 NSCLC = test system: HOP-92 NSCLC
OVCAR-5 ovarian = test system: OVCAR-5 ovarian
DU-145 prostate = test system: DU-145 prostate
MDA-MB-231 breast = test system: MDA-MB-231 breast
SNB-19 CNS = test system: SNB-19 CNS
786-0 renal = test system: 786-0 renal
CAKI-1 renal = test system: CAKI-1 renal
HT29 colon = test system: HT29 colon
NCI-H226 lung = test system: NCI-H226 lung
U251 CNS = test system: U251 CNS
HCC-2998 colon = test system: HCC-2998 colon
SF-539 CNS = test system: SF-539 CNS
IGROV1 ovarian = test system: IGROV1 ovarian
BT-549 breast = test system: BT-549 breast
SK-MEL-2 melanoma = test system: SK-MEL-2 melanoma
M14 melanoma = test system: M14 melanoma
SN12C renal = test system: SN12C renal
SK-MEL-28 melanoma = test system: SK-MEL-28 melanoma
SW-620 colon = test system: SW-620 colon
SK-OV-3 ovarian = test system: SK-OV-3 ovarian
UACC-257 melanoma = test system: UACC-257 melanoma
UO-31 renal = test system: UO-31 renal
RXF 393 renal = test system: RXF 393 renal
NCI-H522 lung = test system: NCI-H522 lung
SF-295 CNS = test system: SF-295 CNS
COLO 205 colon = test system: COLO 205 colon
NCI/ADR-RES ovarian = test system: NCI/ADR-RES ovarian
ACHN renal = test system: ACHN renal
HOP-62 NSCLC = test system: HOP-62 NSCLC
HCT-15 colon = test system: HCT-15 colon
T-47D breast = test system: T-47D breast
SR leukemia = test system: SR leukemia
HCT-116 colon = test system: HCT-116 colon
CCRF-CEM leukemia = test system: CCRF-CEM leukemia
MDA-MB-435 = test system: MDA-MB-435
MALME-3M melanoma = test system: MALME-3M melanoma
SK-MEL-5 melanoma = test system: SK-MEL-5 melanoma
A498 renal = test system: A498 renal
SNB-75 CNS = test system: SNB-75 CNS
HL-60(TB) leukemia = test system: HL-60(TB) leukemia
OVCAR-8 ovarian = test system: OVCAR-8 ovarian
K-562 leukemia = test system: K-562 leukemia
MOLT-4 leukemia = test system: MOLT-4 leukemia
SF-268 CNS = test system: SF-268 CNS
OVCAR-3 ovarian = test system: OVCAR-3 ovarian

O=C(O)C1C2C=CC(C2)C1C(=O)O (stereo not given)
GI50 (HS 578T breast): > 100 µM | TGI (HS 578T breast): > 100 µM | GI50 (UACC-62 melanoma): > 100 µM | TGI (UACC-62 melanoma): > 100 µM | GI50 (LOX IMVI melanoma): > 100 µM | TGI (LOX IMVI melanoma): > 100 µM | GI50 (MCF7 breast): > 100 µM | TGI (MCF7 breast): > 100 µM | GI50 (OVCAR-4 ovarian): > 100 µM | TGI (OVCAR-4 ovarian): > 100 µM | GI50 (PC-3 prostate): > 100 µM | TGI (PC-3 prostate): > 100 µM | GI50 (NCI-H460 lung): > 100 µM | TGI (NCI-H460 lung): > 100 µM | GI50 (A549 NSCLC): > 100 µM | TGI (A549 NSCLC): > 100 µM | GI50 (KM12 colon): > 100 µM | TGI (KM12 colon): > 100 µM | GI50 (RPMI-8226 leukemia): > 100 µM | TGI (RPMI-8226 leukemia): > 100 µM | GI50 (HOP-92 NSCLC): > 100 µM | TGI (HOP-92 NSCLC): > 100 µM | GI50 (OVCAR-5 ovarian): > 100 µM | TGI (OVCAR-5 ovarian): > 100 µM | GI50 (DU-145 prostate): > 100 µM | TGI (DU-145 prostate): > 100 µM | GI50 (MDA-MB-231 breast): > 100 µM | TGI (MDA-MB-231 breast): > 100 µM | GI50 (SNB-19 CNS): > 100 µM | TGI (SNB-19 CNS): > 100 µM | GI50 (786-0 renal): > 100 µM | TGI (786-0 renal): > 100 µM | GI50 (CAKI-1 renal): > 100 µM | TGI (CAKI-1 renal): > 100 µM | GI50 (HT29 colon): > 100 µM | TGI (HT29 colon): > 100 µM | GI50 (NCI-H226 lung): > 100 µM | TGI (NCI-H226 lung): > 100 µM | GI50 (U251 CNS): > 100 µM | TGI (U251 CNS): > 100 µM | GI50 (HCC-2998 colon): > 100 µM | TGI (HCC-2998 colon): > 100 µM | GI50 (SF-539 CNS): > 100 µM | TGI (SF-539 CNS): > 100 µM | GI50 (IGROV1 ovarian): > 100 µM | TGI (IGROV1 ovarian): > 100 µM | GI50 (BT-549 breast): > 100 µM | TGI (BT-549 breast): > 100 µM | GI50 (SK-MEL-2 melanoma): > 100 µM | TGI (SK-MEL-2 melanoma): > 100 µM | GI50 (M14 melanoma): > 100 µM | TGI (M14 melanoma): > 100 µM | GI50 (SN12C renal): > 100 µM | TGI (SN12C renal): > 100 µM | GI50 (SK-MEL-28 melanoma): > 100 µM | TGI (SK-MEL-28 melanoma): > 100 µM | GI50 (SW-620 colon): > 100 µM | TGI (SW-620 colon): > 100 µM | GI50 (SK-OV-3 ovarian): > 100 µM | TGI (SK-OV-3 ovarian): > 100 µM | GI50 (UACC-257 melanoma): > 100 µM | TGI (UACC-257 melanoma): > 100 µM | GI50 (UO-31 renal): > 100 µM | TGI (UO-31 renal): > 100 µM | GI50 (RXF 393 renal): > 100 µM | TGI (RXF 393 renal): > 100 µM | GI50 (NCI-H522 lung): > 100 µM | TGI (NCI-H522 lung): > 100 µM | GI50 (SF-295 CNS): > 100 µM | TGI (SF-295 CNS): > 100 µM | GI50 (COLO 205 colon): > 100 µM | TGI (COLO 205 colon): > 100 µM | GI50 (NCI/ADR-RES ovarian): > 100 µM | TGI (NCI/ADR-RES ovarian): > 100 µM | GI50 (ACHN renal): > 100 µM | TGI (ACHN renal): > 100 µM | GI50 (HOP-62 NSCLC): > 100 µM | TGI (HOP-62 NSCLC): > 100 µM | GI50 (HCT-15 colon): > 100 µM | TGI (HCT-15 colon): > 100 µM | GI50 (T-47D breast): > 100 µM | TGI (T-47D breast): > 100 µM | GI50 (SR leukemia): > 100 µM | TGI (SR leukemia): > 100 µM | GI50 (HCT-116 colon): > 100 µM | TGI (HCT-116 colon): > 100 µM | GI50 (CCRF-CEM leukemia): > 100 µM | TGI (CCRF-CEM leukemia): > 100 µM | GI50 (MDA-MB-435): > 100 µM | TGI (MDA-MB-435): > 100 µM | GI50 (MALME-3M melanoma): > 100 µM | TGI (MALME-3M melanoma): > 100 µM | GI50 (SK-MEL-5 melanoma): > 100 µM | TGI (SK-MEL-5 melanoma): > 100 µM | GI50 (A498 renal): > 100 µM | TGI (A498 renal): > 100 µM | GI50 (SNB-75 CNS): > 100 µM | TGI (SNB-75 CNS): > 100 µM | GI50 (HL-60(TB) leukemia): > 100 µM | TGI (HL-60(TB) leukemia): > 100 µM | GI50 (OVCAR-8 ovarian): > 100 µM | TGI (OVCAR-8 ovarian): > 100 µM | GI50 (K-562 leukemia): > 100 µM | TGI (K-562 leukemia): > 100 µM | GI50 (MOLT-4 leukemia): > 100 µM | TGI (MOLT-4 leukemia): > 100 µM | GI50 (SF-268 CNS): > 100 µM | TGI (SF-268 CNS): > 100 µM | GI50 (OVCAR-3 ovarian): > 100 µM | TGI (OVCAR-3 ovarian): > 100 µM
